Drawing on a melting point compilation (Tetko et al.; mined from patent text by program, amines drawn as free bases though some values may be those of a salt), this text covers melting point for 89 molecules.

In the case of `COc1c(C2CCN(CCCCNC(=O)c3ccc(-c4ccc(C#N)s4)cc3)CC2)ccc2c1CCCC2`, the melting point lay within 182 to 184 °C. On to `CNCC(O)c1ccc(CO)cc1` (centres undefined), for which the melting point was 80 to 81 °C. With `Cc1cc(-c2cc(C(F)(F)F)n3ncc(-c4nc(-c5ccc(N)nc5)no4)c3n2)ccc1Cl`, the melting point amounted to 262 °C.

Turning to `COCCc1nc2c(N)nc3cc(OCc4cccc([N+](=O)[O-])c4)ccc3c2n1CC(C)(C)O`, the melting point lay within 125 to 127 °C. Next, `COCC1COc2cc3ncnc(Nc4cccc(C(F)(F)F)c4)c3cc2O1` (centres undefined): 280 to 282 °C. Then `CC(C)Oc1ccc(CCCOc2cc(CCC(=O)O)n(-c3ccccc3)n2)c(Oc2ccc(C(F)(F)F)cn2)c1`, with 80 to 82 °C; and `Cc1ccc(S(=O)(=O)c2nsc3nc4ccccc4n23)cc1`, with 231 to 234 °C; and `COC1=C(OC)C(=O)C(CCC(C)CCC(=O)O)=C(C)C1=O` (centres undefined), with 58 to 61 °C.

With `CSc1sc(C(=O)N2CCCCCC2)c2c1-c1oncc1C(C)(C)C2`, the melting point fell in the range of 99 to 101 °C.

Molecule `CN(C)CCC(c1ccc(NC=O)cc1)c1ncc[nH]1` (centres undefined) displayed a melting point of 142 to 144 °C. Then `COc1cc(C(C)=O)ccc1OCCCN1CCC(=C(c2ccc(Cl)cc2)c2ccc(Cl)cc2)CC1`, with 143 to 144 °C. Then `COc1ccccc1CNc1ccc2cc(Nc3nccc(C(F)(F)F)n3)ccc2n1`, with 114 °C; and `COC1=C(C)C(C)(F)C(C(=O)c2ccccc2)C=C1` (centres undefined), with 59 to 61 °C. Then `CC1(C)Oc2ccc(C#N)cc2[C@@H](O)[C@@H]1Br` (relative stereo), with 128 °C. The molecule `Nc1cc(Cl)cc(NCCO)c1[N+](=O)[O-]` showed a melting point of 183 °C.

Take `N#Cc1c(I)[nH]c(I)c1I`: the melting point lay within 257 to 258 °C. Regarding `CN1CCC(C2(O)c3ccccc3Oc3ccc(C(F)(F)F)cc32)CC1` (centres undefined), the melting point fell in the range of 179 to 183 °C. For the molecule `CCCCCCCCCC(=O)Nc1ccc(C=C(C#N)C(=O)OCC)cc1`, the melting point was 76 °C.

`CN(C(=O)Cl)c1ccc2c(c1)OCO2` yielded a melting point of 71 to 73 °C. `COc1cc(C=CC(=O)Nc2cnc3ccccc3c2-c2ccccc2)cc(OC)c1OC(C)=O` had a melting point of 247 to 248 °C.

`Cc1cc(Nc2ccc(F)cc2)nc(Nc2ccc(S(=O)(=O)N(C)C3CCN(Cc4ccoc4)CC3)cc2)n1`: the melting point was found to be 156 °C. Next, `O=C(NCCN1CCC2(CC1)C(=O)NCN2c1ccccc1)c1ccco1`: 196 °C; `CCCCc1nc2c(C)cccc2n1Cc1ccc([N+](=O)[O-])cc1`: 115 to 116 °C. As for `O=C(O)C(=O)c1c(F)c(F)c(OCCOc2ccc3ccccc3c2)c(F)c1F`, the melting point was in the range of 146 to 148 °C. Next, `CN1C2=NCCN2C(=O)c2cccnc21`: 168 to 171 °C. In turn, `OC1(c2ccc3c(c2)OCO3)CCN(Cc2ccccc2)CC1` registered a melting point of 144 °C. As to `CCOC(=O)NCCc1cccc(-c2ccnc3c(Cl)cnn23)c1`, the melting point was 100 to 102 °C. Then `O=C(O)c1ccc(OC(F)(F)F)c(OC2CCCC2)c1`, with 116 to 118 °C; and `NC(=O)C(N)c1ccc(Cl)cc1Cl` (centres undefined), with 114 °C. The molecule `Cn1c(C(=O)C(C)(C)C)cc2cc(OCc3ccccc3)ccc21` displayed a melting point of 101 to 103 °C. Molecule `Oc1ncnc2c1c(Nc1cccc(Cl)c1)nn2Cc1ccccc1` had a melting point of 148 to 150 °C. Then `COc1ccccc1C(CNc1c(C#N)cnn2cccc12)N1CCOCC1` (centres undefined), with 157 °C; and `Cc1ccc(S(=O)(=O)n2ccc3c(OCC4CO4)cccc32)cc1` (centres undefined), with 109 to 112 °C; and `Cc1cn(Cc2ccccc2[N+](=O)[O-])c(=O)o1`, with 82.9 to 83.9 °C. Molecule `C=CCC1Oc2c(C)c(C)c(O)c(C)c2S1` (centres undefined) returned a melting point of 78.5 to 79.5 °C. `S=c1c2cccnc2c(-c2cccc(Cl)c2)nn1Cc1ccccc1` gave a melting point of 132 °C. Next, `COc1ccc(C(=O)c2ccc(Cl)nc2)c(O)c1`: 138 to 139 °C; `CN(N)c1nc2ccccc2o1`: 128 to 131 °C; `CC1Cc2c([nH]c3ccccc23)-c2nc3c(c(=O)n21)CCCC3` (centres undefined): 232 °C. Then `CC1(C)C2CCC1(CCCC(=O)O)CC2`, with 72 to 73 °C; and `Cc1ccc2c(c1)oc1c(C(=O)NN3CCCC3)nn(-c3ccc(Cl)cc3Cl)c12`, with 90 to 92 °C; and `CN1CCC(O)(C(c2cc(Cl)ccc2F)n2cccc2)CC1` (centres undefined), with 124 to 125 °C. Consider `CC(C)Sc1cc(O)c(N)c(C#N)c1`, for which the melting point fell in the range of 145 to 146 °C. `CCCCCCOc1cc(O)c(-c2nc(-c3ccc(C)cc3C)nc(-c3ccc(C)cc3C)n2)cc1C(C)(C)c1ccccc1` came in with a melting point of 111 to 115 °C. Next, `Cc1cccc2c(=O)[nH]c(CCCN(C)C)cc12`: 105 to 106 °C; `COc1ccc(-c2ccc(C(C)=O)cc2N)cc1`: 152 to 154 °C; `O=C(O)CN1C(=O)C(=Cc2ccc(CO)o2)SC1=S`: 206 to 209 °C. Next, `CCOc1ccc2c(c1)c(C[C@H](C)N)c1n2CCC1`: 101 to 102 °C; `CC(C)(C)NC(=O)c1ccccc1C(C(=O)C(C)(C)C)c1ccccc1` (centres undefined): 157 to 161 °C; `C[C@H](NC(=O)CS)C(=O)N1CCC[C@H]1C(=O)O`: 152 to 155 °C.

Consider `CN1C(=O)OC[C@@H]1Cc1ccc([N+](=O)[O-])cc1`, for which the melting point lay in the range of 146 to 147 °C. Next, `CC(=O)Nc1cc(Br)ccc1Sc1ccc([N+](=O)[O-])cc1[N+](=O)[O-]`: 194 to 196 °C; `CCCNCC(O)COc1ccccc1CCCc1cccc2[nH]ccc12` (centres undefined): 99 to 100 °C. Molecule `COC(=O)C(C)NC(=O)NCCCCC1CCSS1` (centres undefined) gave a melting point of 72 to 82 °C. Next, `COc1ccc(C(Cl)=NO)cc1`: 87.5 to 89.5 °C; `COc1ccc(C2Sc3cc(Cc4ccc(C)s4)ccc3N(CCN(C)C)C(=O)C2OC(C)=O)cc1` (centres undefined): 131 to 134 °C; `O=C(NCCN1CCC2(CC1)C(=O)NCN2c1ccccc1)c1ccc(Cl)cc1`: 201 °C.

As for `CCN(c1ccc2c(c1)OCO2)c1nc(=O)c2cccnc2s1`, the melting point was in the range of 184 to 185 °C. Molecule `CC1(C)CC(Br)c2cc(C#N)ccc2O1` (centres undefined) showed a melting point of 94 to 95 °C. `N#CC(C#N)=CN(N=C(C#N)C#N)c1cccc(F)c1` returned a melting point of 134 to 135 °C.

As to `CCCN1C(=O)c2ccccc2C1(SCc1ccccc1)c1ccc(Cl)cc1` (centres undefined), the melting point was in the range of 132 to 133 °C. On to `C=C1CCC2C3CCc4cc(OC)ccc4C3CCC12C` (centres undefined), for which the melting point fell in the range of 59 to 62 °C. Then `O=S(c1ccc(/C=C/c2nc(COc3ccc(CCCCn4ccnn4)cc3)co2)cc1)C(F)(F)F` (centres undefined), with 122 to 123 °C; and `CC1CCCN(C(=O)c2ccc([N+](=O)[O-])cc2)C1` (centres undefined), with 70.2 to 71.3 °C.

As to `CC(C)=NNc1nc(Cl)c(-c2c(F)cc(F)cc2F)c(NC(C)C(F)(F)F)n1` (centres undefined), the melting point fell in the range of 157 to 159 °C. Then `NN(c1ccccc1)c1cc(Cl)nc(Cl)n1`, with 114 to 116 °C. The molecule `Cc1c2c(c(-c3ccccc3)n1C)N(C)C(=O)CN=C2c1ccccc1` displayed a melting point of 232 to 234 °C.

As for `CCCCCCCCCCCCCC(=O)NCCOCCn1c(CCOC)nc2c(N)nc3ccccc3c21`, the melting point was 85 to 87 °C. Regarding `Nc1cccc2c1CN(c1c(F)cc3c(=O)c(C(=O)O)cn(-c4ccc(F)cc4F)c3c1F)C2`, the melting point was 264 to 266 °C. Then `Cc1cc(Oc2c(Cl)cc(C(F)(F)F)cc2[N+](=O)[O-])n[nH]1`, with 120 to 123 °C.

On to `COC(=O)c1ccc2c(c1)C(=O)c1ccc(C(=O)OC)cc1C2=O`, for which the melting point came to 260 °C.

Take `Cc1ccc(Sc2nc(Cl)c(C#N)cc2F)cc1`: the melting point was 124 to 125 °C. Then `COc1cc(OC)c(SC(C)(C)CC(=O)O)c(OC)c1`, with 103 to 105 °C; and `CC(=O)C1=C(O)C(C(=O)C=Cc2ccc(O)cc2)C(=O)OC1=O` (centres undefined), with 194 to 196 °C; and `COc1ccc(N2CCOCC2)c2sc(-c3nc(-c4ccccc4)c[nH]3)nc12`, with 226 to 233 °C. Next, `Oc1ccc2c(CCCCN3CC=C(c4cccs4)CC3)c[nH]c2c1`: 181 °C; `CCCc1cc(-c2ccc(Cl)cc2)nc2c(C(=O)Nc3cccc(S(N)(=O)=O)c3)cnn12`: 252 to 254 °C; `CC(C)(O)Cn1c(CO)nc2c(N)nc3cc(-c4ccccc4)cnc3c21`: 244 to 245 °C. Next, `CC(C)(O)Cn1c(CO)nc2c(N)nc3cc(-c4cccc(C(=O)N5CCCC5)c4)cnc3c21`: 157 to 160 °C. For `CC(C)c1nc2cc(NC(=O)c3c(C(=O)N4CCC4)cnn3C)ccn2n1`, the melting point fell in the range of 226 to 227 °C. Then `CCCCCCCCCCCCCCCC(=O)OC(CCCCCCCCCCCCCCC)CC(=O)NCCC(=O)NC(CCC(=O)O)C(=O)O` (centres undefined), with 100 to 104 °C. In turn, `Nc1sc2c(c1C(=O)c1ccc(Br)c3ccccc13)CCC2` returned a melting point of 210 to 212 °C.

As for `CCc1cc2c(ccc(=O)n2Cc2ccc(Oc3ccccc3CC(=O)O)cc2)c(CC)n1`, the melting point fell in the range of 211 to 215 °C. For the molecule `COC(=O)COc1ccc(OC)cc1C(=O)OC`, the melting point is 66 to 68.5 °C.

Turning to `COc1ccc2sc(CC3(O)C4CC5CC(C4)CC3C5)nc2c1` (centres undefined), the melting point lay in the range of 140 to 142 °C.

The molecule `CC(=C(Cl)Cl)c1cc(N)c(S(N)(=O)=O)cc1S(N)(=O)=O` had a melting point of 199 to 202 °C. Consider `COc1cc(-c2ncn(C)c2-c2scc(OC)c2OC)cc(OC)c1OC`, for which the melting point fell in the range of 142 to 143 °C. Then `CCCCc1nc(C(=O)C(C)C)c(C#N)n1Cc1ccc(-c2ccccc2-c2nnnn2C(c2ccccc2)(c2ccccc2)c2ccccc2)cc1`, with 115 to 116 °C.

Turning to `Nc1nc2ccccc2c2c1nc(CCCOc1ccccc1)n2CCCNC(=O)c1ccc(Br)cc1`, the melting point lay within 186 to 187 °C.
